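Test compounds were applied to cells in 96-well plates for 48 hours at 5 doses. Abbreviation: GI50, concentration required for 50% inhibition of growth.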 Active and inactive are the calls of the source. Rule as the data show it: active = GI50 up to about 1.1 µM and inactive = higher.
Legend:
Test in all cases: inhibition of tumour cell growth, NCI panel, 48 h
SW-620 = test system: SW-620
786-0 = test system: 786-0
EKVX = test system: EKVX
ACHN = test system: ACHN
HOP-62 = test system: HOP-62
SF-539 = test system: SF-539
SK-MEL-28 = test system: SK-MEL-28
U-251 = test system: U-251
SK-MEL-5 = test system: SK-MEL-5
NCI-H226 = test system: NCI-H226
RPMI-8226 = test system: RPMI-8226
SNB-19 = test system: SNB-19
UACC-257 = test system: UACC-257
UO-31 = test system: UO-31
SNB-75 = test system: SNB-75
LOX IMVI = test system: LOX IMVI
RXF 393 = test system: RXF 393

Measured: GI50

CC1=C(C(=O)Nc2ccc(Cl)c(Cl)c2)C(c2ccco2)C(C(=O)Nc2ccc(Cl)c(Cl)c2)=C(C)N1
inactive: SW-620 14.6 µM | 786-0 13 µM | EKVX 14.9 µM | ACHN 5 µM | HOP-62 14 µM | SF-539 13.8 µM | SK-MEL-28 11.7 µM | U-251 11 µM | SK-MEL-5 13.7 µM | NCI-H226 12.5 µM | RPMI-8226 7.16 µM | SNB-19 12.7 µM | UACC-257 14.7 µM | UO-31 10.1 µM | SNB-75 13.9 µM

N#Cc1sc2nc3c(c(-c4ccccc4)c2c1N)CCCC3
inactive: SW-620 > 100 µM | LOX IMVI 48 µM | 786-0 46 µM | ACHN 76.9 µM | HOP-62 > 10 µM | SF-539 23.9 µM | SK-MEL-28 > 100 µM | U-251 39.8 µM | NCI-H226 > 100 µM | RPMI-8226 > 100 µM | SNB-19 56.8 µM | UACC-257 > 100 µM | UO-31 > 100 µM | RXF 393 41.8 µM

CCOC(=O)CC(NC(=O)c1ccc(/N=N/N(C)C)cc1)C(=O)OCC (configuration not stated)
inactive: SW-620 > 100 µM | LOX IMVI > 100 µM | 786-0 > 100 µM | EKVX > 100 µM | ACHN > 100 µM | HOP-62 > 100 µM | SF-539 > 100 µM | SK-MEL-28 > 100 µM | U-251 > 100 µM | SK-MEL-5 > 100 µM | NCI-H226 > 100 µM | RPMI-8226 > 100 µM | SNB-19 > 100 µM | UACC-257 > 100 µM | UO-31 > 100 µM | SNB-75 91.8 µM

CCN(CC)CCN(C(=O)C(C)(C)C)c1ccccc1N
inactive: SW-620 > 100 µM | 786-0 > 100 µM | EKVX > 100 µM | ACHN > 100 µM | HOP-62 > 100 µM | SF-539 > 100 µM | SK-MEL-28 > 100 µM | U-251 > 100 µM | SK-MEL-5 > 100 µM | NCI-H226 > 100 µM | RPMI-8226 > 100 µM | SNB-19 > 100 µM | UACC-257 > 100 µM | UO-31 > 100 µM | SNB-75 > 100 µM | RXF 393 > 100 µM

CN(C)Nc1cc(=O)[nH]c(=O)[nH]1
inactive: SW-620 > 100 µM | LOX IMVI > 100 µM | 786-0 > 100 µM | EKVX > 100 µM | ACHN > 100 µM | HOP-62 > 100 µM | SF-539 > 100 µM | SK-MEL-28 > 100 µM | U-251 > 100 µM | SK-MEL-5 > 100 µM | NCI-H226 > 100 µM | RPMI-8226 > 100 µM | SNB-19 > 100 µM | UACC-257 > 100 µM | UO-31 > 100 µM | RXF 393 > 100 µM

COc1ccc(C2=Nc3c(nc(OC)[nH]c3=O)NC(c3ccccc3)C2)cc1 (configuration not stated)
inactive: SW-620 24.1 µM | LOX IMVI 26.6 µM | 786-0 27.6 µM | EKVX 33.9 µM | ACHN 27.5 µM | HOP-62 41.5 µM | SF-539 28.1 µM | SK-MEL-28 19.1 µM | U-251 24.8 µM | SK-MEL-5 18.4 µM | NCI-H226 36.6 µM | RPMI-8226 32.7 µM | SNB-19 30.5 µM | UACC-257 49.9 µM | UO-31 46.2 µM | SNB-75 12.5 µM | RXF 393 29.7 µM

O=C(Nn1c(-c2cccs2)nc2ccc(I)cc2c1=O)c1ccccc1
inactive: SW-620 71.6 µM | LOX IMVI 21.4 µM | 786-0 43.2 µM | EKVX 27.8 µM | ACHN 30.7 µM | HOP-62 40.7 µM | SK-MEL-28 24.7 µM | U-251 24.7 µM | SK-MEL-5 21.9 µM | NCI-H226 28.5 µM | SNB-19 21.3 µM | UO-31 28.3 µM | RXF 393 35.4 µM
